Test results as given in US11434221B2, “Pyrazine-4-carbamate or -urea derivatives as herbicides” (Syngenta Participations AG, priority 2017, dated 2022).

Key:
Assay type in all cases: in vivo
Design in all cases: key: 5=total damage to plant; 0=no damage to plant
[1] = tested on: Alopecurus myosuroides (ALOMY); assay: Post-emergence herbicidal activity, glasshouse pot test; conditions: Rate 1000 g/ha; sprayed after 8 days cultivation; evaluated after 13 days
Procedure: (§1) Seeds of a variety of test species were sown in standard soil in pots: Triticum aestivium (TRZAW), Avena fatua (AVEFA), Alopecurus myosuroides (ALOMY), Echinochloa crus-galli (ECHCG), Lolium perenne (LOLPE), and Setaria faberi (SETFA). After 8 days cultivation (post-emergence) under controlled conditions in a glasshouse (at 24/16° C., day/night; 14 hours light; 65% humidity), the plants were sprayed with an aqueous spray solution derived from the formulation of the technical active ingredient in acetone/water (50:50) solution containing 0.5% Tween 20 (polyoxyethelyene sorbitan monolaurate, CAS RN 9005-64-5). The test plants were then grown in a glasshouse under controlled conditions (at 24/16° C., day/night; 14 hours light; 65% humidity) and watered twice daily. After 13 days, the test was evaluated (5=total damage to plant; 0=no damage to plant).

[2] = tested on: Avena fatua (AVEFA); assay: as above; conditions: Rate 1000 g/ha; sprayed after 8 days cultivation; evaluated after 13 days
Procedure: as §1

[3] = tested on: Setaria faberi (SETFA); assay: as above; conditions: Rate 1000 g/ha; sprayed after 8 days cultivation; evaluated after 13 days
Procedure: as §1

[4] = tested on: Triticum aestivium (TRZAW); assay: as above; conditions: Rate 1000 g/ha; sprayed after 8 days cultivation; evaluated after 13 days
Procedure: as §1

[5] = tested on: Lolium perenne (LOLPE); assay: as above; conditions: Rate 1000 g/ha; sprayed after 8 days cultivation; evaluated after 13 days
Procedure: as §1

[6] = tested on: Echinochloa crus-galli (ECHCG); assay: as above; conditions: Rate 1000 g/ha; sprayed after 8 days cultivation; evaluated after 13 days
Procedure: as §1

[7] = tested on: Alopecurus myosuroides (ALOMY); assay: Pre-emergence herbicidal activity, glasshouse pot test; conditions: Rate 1000 g/ha; sprayed one day after sowing; evaluated after 13 days
Procedure: as §1, with “After” for “After 8 days”, “for one day (pre-emergence)” for “(post-emergence)”

[8] = tested on: Avena fatua (AVEFA); assay: as above; conditions: Rate 1000 g/ha; sprayed one day after sowing; evaluated after 13 days
Procedure: as §1, with “After” for “After 8 days”, “for one day (pre-emergence)” for “(post-emergence)”

[9] = tested on: Setaria faberi (SETFA); assay: as above; conditions: Rate 1000 g/ha; sprayed one day after sowing; evaluated after 13 days
Procedure: as §1, with “After” for “After 8 days”, “for one day (pre-emergence)” for “(post-emergence)”

[10] = tested on: Triticum aestivium (TRZAW); assay: as above; conditions: Rate 1000 g/ha; sprayed one day after sowing; evaluated after 13 days
Procedure: as §1, with “After” for “After 8 days”, “for one day (pre-emergence)” for “(post-emergence)”

[11] = tested on: Lolium perenne (LOLPE); assay: as above; conditions: Rate 1000 g/ha; sprayed one day after sowing; evaluated after 13 days
Procedure: as §1, with “After” for “After 8 days”, “for one day (pre-emergence)” for “(post-emergence)”

[12] = tested on: Echinochloa crus-galli (ECHCG); assay: as above; conditions: Rate 1000 g/ha; sprayed one day after sowing; evaluated after 13 days
Procedure: as §1, with “After” for “After 8 days”, “for one day (pre-emergence)” for “(post-emergence)”

SMILES	Control of weed species after post-emergence application, ALOMY (damage score 0-5) [1]	Control of weed species after post-emergence application, AVEFA (damage score 0-5) [2]	Control of weed species after post-emergence application, SETFA (damage score 0-5) [3]	Control of weed species after post-emergence application, TRAZW (damage score 0-5) [4]	Control of weed species after post-emergence application, LOLPE (damage score 0-5) [5]	Control of weed species after post-emergence application, ECHCG (damage score 0-5) [6]	Control of weed species after pre-emergence application, ALOMY (damage score 0-5) [7]	Control of weed species after pre-emergence application, AVEFA (damage score 0-5) [8]	Control of weed species after pre-emergence application, SETFA (damage score 0-5) [9]	Control of weed species after pre-emergence application, TRAZW (damage score 0-5) [10]	Control of weed species after pre-emergence application, LOLPE (damage score 0-5) [11]	Control of weed species after pre-emergence application, ECHCG (damage score 0-5) [12]
CC(C)(C)OC(=O)Nc1ncc(-c2cncc(F)c2)nc1C#N [Compound H10]	0	1	5	0	1	2	0	0	4	0	0	2
C=C(C)c1nc(-c2cncc(F)c2)cnc1N(C(=O)OC(C)(C)C)C(=O)OC(C)(C)C [Compound H11]	0	2	5	0	2	3	1	0	4	0	2	3
CC(C)(C)OC(=O)N(C(=O)OC(C)(C)C)c1ncc(-c2cncc(F)c2)nc1C1CC1 [Compound H12]	0	2	5	0	2	3	0	0	4	0	0	1
CC(C)c1nc(-c2cncc(F)c2)cnc1N(C(=O)OC(C)(C)C)C(=O)OC(C)(C)C [Compound H13]	0	1	5	1	1	2	0	0	4	0	0	1
CC(C)=Cc1nc(-c2cncc(F)c2)cnc1N(C(=O)OC(C)(C)C)C(=O)OC(C)(C)C [Compound H14]	0	1	4	0	1	2	0	0	3	0	2	2
CC(C)(C)OC(=O)N(C(=O)OC(C)(C)C)c1ncc(-c2cncc(F)c2)nc1C1=CCCCC1 [Compound H15]	0	1	2	0	0	0	0	0	0	0	0	0
CC(C)(C)OC(=O)N(C(=O)OC(C)(C)C)c1ncc(-c2cncc(F)c2)nc1Br [Compound H16]	0	1	3	0	2	1	0	0	1	0	0	1
CC(C)(C)OC(=O)OCc1nc(-c2cncc(F)c2)cnc1N(C(=O)OC(C)(C)C)C(=O)OC(C)(C)C [Compound H18]	0	1	3	0	1	4	0	0	4	0	1	3
Cc1nc(-c2cncc(F)c2)cnc1N(C)C(=O)OC(C)(C)C [Compound H19, tert-butyl N-(3-methyl-5-(5-fluoropyridin-3-yl)-pyrazin-2-yl)-N-methyl-carbamate]	0	3	5	0	2	4	0	2	5	0	1	4
